Test results published in ChEMBL document CHEMBL4837190, “Targeted Isolation of Hemitheion from Mostuea brunonis, a Proposed Biosynthetic Intermediate of Theionbrunonines” (J Nat Prod, 2021).

Legend:
Plasmodium falciparum = experiment: Antiplasmodial activity against chloroquine-resistant Plasmodium falciparum FcB1/Colombia infected in human red blood cells assessed as reduction in [3H]-hypoxanthine incorporation measured after 24 hrs liquid scintillation counting method; assay type: functional, organism-based, RBC; conditions: Erythrocyte
MRC5 = experiment: Cytotoxicity against human MRC5 cells assessed as growth inhibition measured after 72 hrs by MTS assay; assay type: cell-based; conditions: MRC5, 72 h

| SMILES | IC50 (Plasmodium falciparum) [µM] | IC50 (MRC5) [µM] |
| --- | --- | --- |
| C/C=C1/CN(C)[C@@H]2Cc3c([nH]c4ccccc34)[C@@H](S)C[C@H]1[C@H]2C(=O)OC | 1.05 | > 50 |
| C/C=C1/CN(C)[C@@H]2Cc3c([nH]c4ccccc34)C(=O)C[C@H]1[C@H]2C(=O)OC | 22.5 | > 50 |
| CC[C@H]1N[C@H]2C[C@@]3(C(=O)N(OC)c4ccccc43)[C@@H]3C[C@@H]1[C@@H]2CO3 | 42.5 | > 50 |
| CC[C@H]1N[C@H]2C[C@@]3(C(=O)N(OC)c4cc(OC)ccc43)[C@@H]3C[C@@H]1[C@@H]2CO3 | 59.5 | > 50 |
